Reference: patent US7109193B2, “Tricyclic diazepines tocolytic oxytocin receptor antagonists” (Wyeth, priority 2001, dated 2006)

These compounds were tested against T1, human vasopressin V2 receptor subtype (Homo sapiens, UniProt P30518) (assay: Vasopressin binding in Chinese Hamster Ovary cell membranes expressing human vasopressin V2 subtype receptors). Details: 100 nM, CHO cell membranes, [3H]arginine vasopressin, values without parentheses.
T1 construct: host or cells: CHO cells (pZeoSV vector)
Description: Vasopressin Binding in Chinese Hamster Ovary Cell Membranes Expressing Human Vasopressin V2 Subtype Receptors
Chinese Hamster Ovary (CHO) cells stably transfected with the human V2 subtype receptors were obtained from M. Thibonnier, Case Western Reserve University School of Medicine, Cleveland, Ohio.
A. Passaging and Amplification of Cells:
The trypsin is removed by aspiration and the cells dislodged by tapping. Cell Culture medium (e.g. 30 mL for 1:30 split) is immediately added and mixed well to inactivate trypsin. 1 mL of detached cells is added to new culture flasks containing fresh Cell Culture medium (e.g. into 25 mL per T-150 flask), and mixed gently. The cells are incubated at 37° C. in 5% CO2. The medium is changed at 3 to 4 day interval (or as appropriate). […] All steps are done under sterile conditions. B. Membrane Preparation: The cells are washed twice gently with Hank's Balanced Salt solution (e.g. use 10 mL per T-150 flask). […] The contents are transferred to centrifuge tubes (50 mL) kept in ice bath. All subsequent steps are done at 4° C. The tubes are centrifuged at 300×g for 15 min (1380 rpm on SORVAL, Model RT6000D, using the rotor for 50 mL tubes). The supernatant is discarded and the cells suspended in homogenizing buffer (10 mM Tris-HCl containing 0.25 M sucrose and 1 mM EDTA, pH 7.4) ensuring that the volume of the buffer is about ten times the volume of the cell pellet. The cells are pooled into a centrifuge tube (50 mL) and homogenized with a Polytron at setting 6 for 10 sec. The homogenate is transferred into a Potter-Elvjehm homogenizer and homogenized with 3 strokes. The homogenate is centrifuged at 1500×g for 60 min at 4° C. (3100 rpm using SORVAL, model RT6000D, using the rotor for 50 mL tubes). The pellet is discarded. The supernatant is centrifuged at 100,000×g for 60 min. at 4° C. (Beckman L8-80M ultracentrifuge; spin at 37,500 rpm with rotor type 70 Ti for 50 mL tubes; 38,000 rpm with type 80Ti for 15 mL tubes; or 35,800 rpm with rotor type 45Ti). The supernantant is discarded and the pellet suspended in 3 to 4 mL of Tris buffer (50 mM TRIS-HCl, pH 7.4). The protein content is estimated by the Bradford or Lowry method. The volume of the membrane suspension is adjusted with the membrane buffer (50 mM Tris-HCl containing 0.1% BSA and 0.1 mM PMSF) to give 3.0 mg/mL (or as appropriate) of protein. The membranes are aliquoted and stored at −70° C. C. Radioligand Binding Assay: In wells of a 96-well format microtiter plate, is added 90, 110 or 130 μL (to make up a final volume of 200 μL) of assay buffer containing 50 mM of Tris-HCl (pH 7.4), […], 1 mg % aprotinin, 1 mg % leupeptin, 2 mg % 1,10-phenanthroline, 10 mg % trypsin inhibitor, and 0.1 mM PMSF. The inhibitors are added on the day of the experiment. The components are mixed at room temperature, and then kept in ice bath following adjustment of the pH to 7.4. […] For vasopressin and other peptide ligands 20 μL of 50% DMSO is added and the assay buffer volume is adjusted accordingly. To each well is added 50 μL of frozen membrane suspension thawed immediately prior to use and diluted in assay buffer to the required concentration (equivalent to 25 to 50 μg of protein/well as needed). 20 μL of 8 nM [^3H]arginine vasopressin ligand in the assay buffer, prepared just before use is added and incubated at room temperature for 60 min. shaking the plate on a mechanical shaker for the first 15 min. The incubation is stopped by rapid filtration of the plate contents followed by wash with ice-cold buffer (50 mM Tris-HCl, pH 7.4) using a cell harvester (Tomtek and Printed filtermat-B filter paper). The filter paper is thoroughly dried (7–12 min. in a microwave oven) and impregnated with MeltiLex B/H melt-on scintillation wax sheets and the radioactivity counted in a betaplate scintillation counter.

T1 sequence (P30518 whole entry): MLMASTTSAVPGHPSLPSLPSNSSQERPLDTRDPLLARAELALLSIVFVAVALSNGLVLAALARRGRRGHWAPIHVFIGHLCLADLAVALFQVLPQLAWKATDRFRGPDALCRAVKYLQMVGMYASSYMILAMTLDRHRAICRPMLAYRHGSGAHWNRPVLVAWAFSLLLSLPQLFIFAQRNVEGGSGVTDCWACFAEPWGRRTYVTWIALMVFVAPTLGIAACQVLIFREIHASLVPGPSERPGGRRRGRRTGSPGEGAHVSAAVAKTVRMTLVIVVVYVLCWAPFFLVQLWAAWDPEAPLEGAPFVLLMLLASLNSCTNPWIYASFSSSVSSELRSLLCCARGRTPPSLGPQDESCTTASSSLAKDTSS

Question: Which inhibition at 0.1 µM does the source give for `COc1cc(C(=O)N2Cc3ccc(C(=O)N4CCC(N5CCCC5)CC4)n3Cc3ccccc32)ccc1-c1ccccc1C` [Example 142, {10-[(2-Methoxy-2′-methyl[1,1′-biphenyl]-4-yl)carbonyl]-10,11-dihydro-5H-pyrrolo[2,1-c][1,4]benzodiazepin-3-yl}[4-(1-pyrrolidinyl)-1-piperidinyl]methanone] here?
Answer: -5%

Question: Which inhibition at 0.1 µM does the source give for `COc1cccc(-c2cc(OC)c(C(=O)N3Cc4ccc(C(=O)N5CCC(N6CCCC6)CC5)n4Cc4ccccc43)cc2Cl)c1` [Example 143, {10-[(6-Chloro-3,3′-dimethoxy[1,1′-biphenyl]-4-yl)carbonyl]-10,11-dihydro-5H-pyrrolo[2,1-c][1,4]benzodiazepin-3-yl}[4-(1-pyrrolidinyl)-1-piperidinyl]methanone] here?
Answer: 7%

Question: Which inhibition at 0.1 µM does the source give for `COc1cc(C(=O)N2Cc3ccc(C(=O)N4CCC(N5CCCC5)CC4)n3Cc3ccccc32)ccc1-c1cccc2ccccc12` [Example 144, {10-[3-Methoxy-4-(1-naphthyl)benzoyl]-10,11-dihydro-5H-pyrrolo[2,1-c][1,4]benzodiazepin-3-yl}[4-(1-pyrrolidinyl)-1-piperidinyl]methanone] here?
Answer: 3%

Question: With `COc1ccccc1-c1ccc(C(=O)N2Cc3ccc(C(=O)N4CCC(N5CCCC5)CC4)n3Cc3ccccc32)cc1OC` [Example 145, {10-[(2,2′-Dimethoxy[1,1′-biphenyl]4-yl)carbonyl]-10,11-dihydro-5H-pyrrolo[2,1-c][1,4]benzodiazepin-3-yl}[4-(1-pyrrolidinyl)-l-piperidinyl]methanone] as the compound, how does the “V2 % inhibition @ 100 nM” value read?
Answer: −5%

Question: Which inhibition at 0.1 µM does the source give for `COc1cccc(-c2ccc(C(=O)N3Cc4ccc(C(=O)N5CCC(N6CCCC6)CC5)n4Cc4ccccc43)cc2OC)c1` [Example 146, {10-[(2,3′-Dimethoxy[1,1′-biphenyl]-4-yl)carbonyl]-10,11-dihydro-5H-pyrrolo[2,1-c][1,4]benzodiazepin-3-yl}[4-(1-pyrrolidinyl)-1-piperidinyl]methanone] here?
Answer: 12%

Question: With `O=C(c1ccc2n1Cc1ccccc1N(C(=O)c1ccc(-c3cccc4ccccc34)cc1Cl)C2)N1CCC(N2CCCC2)CC1` [Example 147, {10-[2-Chloro-4-(1-naphthyl)benzoyl]-10,11-dihydro-5H-pyrrolo[2,1-c][1,4]benzodiazepin-3-yl}[4-(1-pyrrolidinyl)-1-piperidinyl]methanone] as the compound, how does the inhibition at 0.1 µM read?
Answer: 20%

Question: Which inhibition at 0.1 µM does the source give for `Cc1cc(C(=O)N2Cc3ccc(C(=O)N4CCC(N5CCCC5)CC4)n3Cc3ccccc32)ccc1-c1ccccc1C(F)(F)F` [Example 148, (10-{[2-Methyl-2′-(trifluoromethyl)[1,1′-biphenyl]-4-yl]carbonyl}-10,11-dihydro-5H-pyrrolo[2,1-c][1,4]benzodiazepin-3-yl)[4-(1-pyrrolidinyl)-1-piperidinyl]methanone] here?
Answer: 1%

Question: `COc1ccccc1-c1ccc(C(=O)N2Cc3ccc(C(=O)NCCN4CCCCC4)n3Cc3ccccc32)cc1C` [Example 149, 10-[(2′-Methoxy-2-methyl[1,1′-biphenyl]-4-yl)carbonyl]-N-[2-(1-piperidinyl)ethyl]-10,11-dihydro-5H-pyrrolo[2,1-c][1,4]benzodiazepine-3-carboxamide] was tested. Which inhibition at 0.1 µM did it give?
Answer: 20%

Question: For `Cc1ccccc1-c1ccc(C(=O)N2Cc3ccc(C(=O)NCCN4CCCCC4)n3Cc3ccccc32)cc1C` [Example 150, 10-[(2,2′-Dimethyl[1,1′-biphenyl]-4-yl)carbonyl]-N-[2-(1-piperidinyl)ethyl]-10,11-dihydro-5H-pyrrolo[2,1-c][1,4]benzodiazepine-3-carboxamide], which inhibition at 0.1 µM is on record?
Answer: 18%

Question: For `COc1cccc(-c2ccc(C(=O)N3Cc4ccc(C(=O)NCCN5CCCCC5)n4Cc4ccccc43)cc2C)c1` [Example 151, 10-[(3′-Methoxy-2-methyl[1,1′-biphenyl]-4-yl)carbonyl]-N-[2-(1-piperidinyl)ethyl]-10,11-dihydro-5H-pyrrolo[2,1-c][1,4]benzodiazepine-3-carboxamide], which inhibition at 0.1 µM is on record?
Answer: 6%

Question: `COc1ccccc1-c1ccc(C(=O)N2Cc3ccc(C(=O)NCCN4CCCCC4)n3Cc3ccccc32)cc1` [Example 152, 10-[(2′-Methoxy[1,1′-biphenyl]-4-yl)carbonyl]-N-[2-(1-piperidinyl)ethyl]-10,11-dihydro-5H-pyrrolo[2,1-c][1,4]benzodiazepine-3-carboxamide] was tested. Which inhibition at 0.1 µM did it give?
Answer: 10%

Question: How did the inhibition at 0.1 µM turn out when `Cc1ccccc1-c1ccc(C(=O)N2Cc3ccc(C(=O)NCCN4CCCCC4)n3Cc3ccccc32)cc1` [Example 153, 10-[(2′-Methyl[1,1′-biphenyl]-4-yl)carbonyl]-N-[2-(1-piperidinyl)ethyl]-10,11-dihydro-5H-pyrrolo[2,1-c][1,4]benzodiazepine-3-carboxamide] was run?
Answer: 11%

Question: Which inhibition at 0.1 µM does the source give for `COc1cc(C(=O)N2Cc3ccc(C(=O)NCCN4CCCCC4)n3Cc3ccccc32)ccc1-c1ccccc1C` [Example 154, 10-[(2-Methoxy-2′-methyl[1,1′-biphenyl]4-yl)carbonyl]-N-[2-(1-piperidinyl)ethyl]-10,11-dihydro-5H-pyrrolo[2,1-c][1,4]benzodiazepine-3-carboxamide] here?
Answer: 9%

Question: For `COc1cc(-c2ccccc2C)c(Cl)cc1C(=O)N1Cc2ccc(C(=O)NCCN3CCCCC3)n2Cc2ccccc21` [Example 155, 10-[(6-Chloro-3-methoxy-2′-methyl[1,1′-biphenyl]-4-yl)carbonyl]-N-[2-(1-piperidinyl)ethyl]-10,11-dihydro-5H-pyrrolo[2,1-c][1,4]benzodiazepine-3-carboxamide], which inhibition at 0.1 µM is on record?
Answer: 15%

Question: For `COc1cccc(-c2ccc(C(=O)N3Cc4ccc(C(=O)NCCC5CCCN5C)n4Cc4ccccc43)cc2C)c1` (stereo not shown) [Example 164, 10-[(3′-Methoxy-2-methyl[1′1′-biphenyl]-4-yl)carbonyl]-N-[2-(1-methyl-2-pyrrolidinyl)ethyl]-10,11-dihydro-5H-pyrrolo[2,1-c][1,4]benzodiazepine-3-carboxamide], which “V2 % inhibition @ 100 nM” value is on record?
Answer: 16%

Question: Which “V2 % inhibition @ 100 nM” value does the source give for `COc1cccc(-c2ccc(C(=O)N3Cc4ccc(C(=O)N5CCN(CCN(C)C)CC5)n4Cc4ccccc43)cc2C)c1` [Example 199, {4-[2-(Dimethylamino)ethyl]-1-piperazinyl{}10-[(3′-methoxy-2-methyl[1,1′-biphenyl]-4-yl)carbonyl]-10,11-dihydro-5H-pyrrolo[2,1-c][1,4]benzodiazepin-3-yl}methanone] here?
Answer: 6%

Question: Which “V2 % inhibition @ 100 nM” value does the source give for `COc1cccc(-c2cc(OC)c(C(=O)N3Cc4ccc(C(=O)N5CCN(CCN6CCOCC6)CC5)n4Cc4ccccc43)cc2Cl)c1` [Example 212, {10-[(6-Chloro-3,3′-dimethoxy[1,1′-biphenyl]-4-yl)carbonyl]-10,11-dihydro-5H-pyrrolo[2,1-c][1,4]benzodiazepin-3-yl}{4-[2-(4-morpholinyl)ethyl]-1-piperazinyi}methanone] here?
Answer: 43%

Question: Which “V2 % inhibition @ 100 nM” value does the source give for `COc1ccccc1-c1ccc(C(=O)N2Cc3ccc(C(=O)N4CCC[C@H]4CN4CCCC4)n3Cc3ccccc32)cc1C` [Example 259, {10-[(2′-Methoxy-2-methyl[1,1′-biphenyl]-4-yl)carbonyl]-10,11-dihydro-5H-pyrrolo[2,1-c][1,4]benzodiazepin-3-yl}[(2S)-2-(1-pyrrolidinylmethyl)pyrrolidinyl]methanone] here?
Answer: −3%

Question: `Cc1ccccc1-c1ccc(C(=O)N2Cc3ccc(C(=O)N4CCC[C@H]4CN4CCCC4)n3Cc3ccccc32)cc1C` [Example 260, {10-[(2,2′-Dimethyl[1,1′-biphenyl]-4-yl)carbonyl]-10,11-dihydro-5H-pyrrolo[2,1-c][1,4]benzodiazepin-3-yl}[(2S)-2-(1-pyrrolidinylmethyl)pyrrolidinyl]methanone] was tested. Which “V2 % inhibition @ 100 nM” value did it give?
Answer: 20%
